The values that follow come from ChEMBL document CHEMBL4842341, “Discovery of IACS-9779 and IACS-70465 as Potent Inhibitors Targeting Indoleamine 2,3-Dioxygenase 1 (IDO1) Apoenzyme” (J Med Chem, 2021).

Series [1] is described as follows: in vitro. The settings on record: human, liver microsomes. In general terms: Microsomes from liver hold many membrane-bound enzymes, among them those of drug oxidation.
The nature of series [2]: in vivo. Particulars: NSG, mouse, tumor, po, 125 mg/kg.
Series [3] is described as follows: in vivo. The settings on record: NSG, mouse, plasma, po, 125 mg/kg.
Series [4] in a line: Apparent permeability across apical side to basolateral side in wild type MDCK cells. The format is ADME, cell-based, Canis lupus familiaris. Particulars: dog.
The nature of series [5]: Apparent permeability across basolateral side to apical side in MDCK cells. The settings on record: dog. The class given is ADME, cell-based, Canis lupus familiaris.
Series [6] is described as follows: Apparent permeability across apical side to basolateral side in MDCK-MDR1 cells. Particulars: dog. The format is ADME, cell-based, Canis lupus familiaris.
A short description of series [7]: Apparent permeability across basolateral side to apical side in MDCK-MDR1 cells. The format is ADME, cell-based, Canis lupus familiaris. Particulars: dog.
A short description of series [8]: in vitro. Particulars: rat, liver microsomes.
A short description of series [9]: in vivo. Particulars: CD1, mouse, iv, 0.3 mg/kg.
A short description of series [10]: in vivo. The settings on record: CD1, mouse, iv, 0.3 mg/kg. The source holds these as a separate data set.
The nature of series [11]: in vivo. Particulars: CD1, mouse, iv, 0.3 mg/kg. This is another data set of the same source.
Series [12] is described as follows: in vivo. The settings on record: CD1, mouse, iv, 0.3 mg/kg. This is another data set of the same source.
The nature of series [13]: in vivo. Particulars: CD1, mouse, po, 10 mg/kg.
Series [14] is described as follows: in vivo. Particulars: CD1, mouse, po, 10 mg/kg. The source holds these as a separate data set.
The nature of series [15]: in vivo. Particulars: NSG, mouse, tumor, po, 125 mg/kg. The source holds these as a separate data set.
The nature of series [16]: in vivo. The settings on record: NSG, mouse, plasma, po, 125 mg/kg. The source holds these as a separate data set.
Series [17] in a line: Half life in mouse plasma. The class given is ADME, cell-free.

Molecules are shown by their SMILES.

As for `CCC(NC(=O)c1ccc(Cl)cc1)[C@@H]1[C@@H]2C[C@@H](Oc3ccnc4ccc(F)cc34)C[C@@H]21` (stereo partly drawn), the CLint scaled (as a rule, the rate of metabolic loss divided by the concentration) at 0.75 h, 1 µM in “in vitro [1]” was found to be 490 mL/min/kg.
Same read-out and setting: the same measure for `CCC(NC(=O)c1ccc(Cl)cc1)[C@H]1[C@@H]2C[C@@H](n3cnc(C4CC4)n3)C[C@@H]21` (stereo partly drawn): 2 mL/min/kg; for `CCC(NC(=O)c1ccc(Cl)cc1)[C@H]1[C@@H]2C[C@@H](n3cnc4cccc(F)c4c3=O)C[C@@H]21` (stereo partly drawn): 0.7 mL/min/kg.
`CC[C@@H](NC(=O)c1ccc(Cl)cc1)[C@H]1[C@@H]2C[C@@H](n3cnc4ccc(C#N)cc43)C[C@@H]21`: the concentration at 120 h in “in vivo [2]” turned out to be 12 µM; in the series “in vivo [3]”, 10.1 µM.
For the compound `C[C@@H](NC(=O)c1ccc(Cl)cc1)[C@H]1[C@@H]2C[C@@H](n3cnc4cc(F)c(F)cc43)C[C@@H]21`, the concentration at 120 h in the series “in vivo [2]” stood at 5.1 µM; in the series “in vivo [3]”, 2.8 µM.
For `CCC(NC(=O)c1ccc(Cl)cc1)[C@H]1[C@@H]2C[C@H](Oc3ccnc4ccccc34)C[C@@H]21` (stereo partly drawn), the apical-to-basolateral permeability (Papp A→B) (in general, the apparent permeability from the apical to the basolateral side of a cell layer) in series [4] worked out at 5.53 ×10⁻⁶ cm/s; in series [6], 3.7 ×10⁻⁶ cm/s. Besides, the Papp B→A (in general, how fast a substance crosses the layer from the basolateral side) in series [5] is 5.61 ×10⁻⁶ cm/s; in series [7], 2.07 ×10⁻⁶ cm/s. In addition, the intrinsic metabolic clearance (CLint scaled) at 0.75 h, 1 µM in the series “in vitro [8]” came to 956 mL/min/kg; in “in vitro [1]”, 316 mL/min/kg.
On to `CCC(NC(=O)c1ccc(Cl)cc1)[C@H]1[C@@H]2C[C@@H](n3cnc4cc(F)cc(F)c43)C[C@@H]21` (stereo partly drawn), for which the CLint scaled at 0.75 h, 1 µM in the series “in vitro [1]” was determined as 5.5 mL/min/kg.
The compound `O=C(NC[C@H]1[C@H]2C[C@H](Oc3ccnc4ccc(F)cc34)C[C@@H]12)c1ccc(Cl)cc1` came in with a CLint scaled at 0.75 h, 1 µM in the series “in vitro [1]” of 227 mL/min/kg.
For the compound `CC(NC(=O)c1ccc(C#N)cc1)[C@H]1[C@@H]2C[C@@H](Oc3ncnc4cc(F)ccc34)C[C@@H]21` (stereo partly drawn), the total exposure AUC(0-inf) (usually total exposure, with the tail of the curve extrapolated) in “in vivo [9]” came out at 106 µM·h. Besides, the half-life (in general, the time in which the quantity being followed falls by half) in “in vivo [10]” was 33 h. Besides, in the series “in vivo [11]”, the Vd (commonly a proportionality between amount in the body and measured concentration, not a real space) amounted to 0.31 L/kg. Further, in “in vivo [12]”, the clearance (commonly a measure of how efficiently the substance is removed, as volume per time) is 0.117 mL/min/kg. The Cmax (as a rule, the peak of the concentration-time curve) in “in vivo [13]” worked out at 44 µM. Also, in “in vivo [14]”, the bioavailability amounted to 62%. The same compound had an intrinsic clearance (CLint scaled) at 0.75 h, 1 µM in “in vitro [1]” of 17 mL/min/kg.
Consider `CCC(NC(=O)c1ccc(Cl)cc1)[C@H]1[C@@H]2C[C@@H](n3cnc4ncc(C#N)cc43)C[C@@H]21` (stereo partly drawn), for which the CLint scaled at 0.75 h, 1 µM in the series “in vitro [1]” turned out to be 4.5 mL/min/kg.
Turning to `CC[C@@H](NC(=O)c1ccc(C#N)cc1)[C@H]1[C@@H]2C[C@@H](n3cnc4cc(F)c(F)cc43)C[C@@H]21`, the results for the concentration at 120 h in the series “in vivo [15]” and in “in vivo [16]” were 52 µM and 49.3 µM, respectively.
For `CCC(NC(=O)c1ccc(Cl)cc1)[C@H]1[C@@H]2C[C@@H](NC(=O)c3cncc(F)c3)C[C@@H]21` (stereo partly drawn), in the series “in vitro [1]”, the CLint scaled at 0.75 h, 1 µM was found to be 13 mL/min/kg.
`CCC(NC(=O)c1ccc(Cl)cc1)[C@H]1[C@@H]2C[C@@H](n3cnc4ccc(F)c(F)c43)C[C@@H]21` (stereo partly drawn) came in with an intrinsic clearance (CLint scaled) at 0.75 h, 1 µM in the series “in vitro [1]” of 18 mL/min/kg.
`O=C(Nc1ccc(Cl)cc1)N1CCC(CCc2ccnc3ccccc23)CC1`: the CLint scaled at 0.75 h, 1 µM was determined as 170 mL/min/kg in “in vitro [8]” and 115 mL/min/kg in “in vitro [1]”.
Take `CCC(NC(=O)c1ccc(Cl)cc1)[C@H]1[C@@H]2C[C@@H](n3cnc4cc(F)cnc43)C[C@@H]21` (stereo partly drawn): the CLint scaled at 0.75 h, 1 µM in the series “in vitro [1]” is 0.46 mL/min/kg.
`CC[C@@H](NC(=O)c1ccc(Cl)cc1)[C@H]1[C@@H]2C[C@@H](n3cnc4ccc(Cl)cc43)C[C@@H]21`: the figures for the concentration at 120 h in “in vivo [2]” and in the series “in vivo [3]” were 0.6 µM and 0.5 µM, respectively.
The like results for `CC[C@@H](NC(=O)c1ccc(Cl)cc1)[C@H]1[C@@H]2C[C@@H](n3c(C)nc4ccc(F)cc43)C[C@@H]21` were, in that order, 0.1 µM and 0.01 µM.
In turn, `CCC(NC(=O)c1ccc(Cl)cc1)[C@H]1[C@@H]2C[C@@H](n3cc(C4CC4)nn3)C[C@@H]21` (stereo partly drawn) showed a total exposure AUC(0-inf) in the series “in vivo [9]” of 2.8 µM·h. Further, the half-life in the series “in vivo [10]” was 2.7 h. For the same compound, the Vd in “in vivo [11]” was found to be 1.04 L/kg. For the same compound, in the series “in vivo [12]”, the clearance was 4.67 mL/min/kg. In “in vivo [13]”, this compound gave a maximum concentration (Cmax) of 1.5 µM. For the same compound, the bioavailability in the series “in vivo [14]” worked out at 22%. In the series “in vitro [1]”, this compound registered a CLint scaled at 0.75 h, 1 µM of 6.5 mL/min/kg.
Turning to `CCC(NC(=O)c1ccc(Cl)cc1)[C@H]1[C@@H]2C[C@@H](n3cnc4ccncc43)C[C@@H]21` (stereo partly drawn), the intrinsic clearance (CLint scaled) at 0.75 h, 1 µM in the series “in vitro [1]” was found to be 8.8 mL/min/kg.
For the compound `CCC(NC(=O)c1ccc(Cl)cc1)[C@H]1[C@@H]2C[C@@H](n3cnc4ccc(F)cc43)C[C@@H]21` (stereo partly drawn), the intrinsic clearance (CLint scaled) at 0.75 h, 1 µM in “in vitro [1]” came out at 11.8 mL/min/kg.
The same measure, in the same setting: with `CCC(NC(=O)c1ccc(Cl)cc1)[C@@H]1[C@@H]2C[C@H](Oc3ccnc4cc(F)ccc34)C[C@@H]21` (stereo partly drawn) the figure was 32 mL/min/kg.
As to `O=C(C[C@H]1CC[C@@H](Oc2ccnc3ccccc23)CC1)Nc1ccc(Cl)cc1`, the CLint scaled at 0.75 h, 1 µM in the series “in vitro [8]” stood at 455 mL/min/kg; in the series “in vitro [1]” it was 44 mL/min/kg.
The matching figures for `O=C(Nc1ccc(Cl)cc1)C1CC12CCC(Oc1ccnc3ccccc13)CC2` (stereo not drawn): 137 mL/min/kg and 171 mL/min/kg.
On to `CC[C@@H](NC(=O)c1ccc(Cl)c(F)c1)[C@H]1[C@@H]2C[C@@H](n3cnc4cc(F)c(F)cc43)C[C@@H]21`, for which the concentration at 120 h in the series “in vivo [2]” stood at 11 µM; in the series “in vivo [3]” it was 4.1 µM.
`CCC(NC(=O)c1ccc(Cl)cc1)[C@@H]1[C@@H]2C[C@H](Oc3ccnc4ccncc34)C[C@@H]21` (stereo partly drawn) registered a CLint scaled at 0.75 h, 1 µM in the series “in vitro [1]” of 54 mL/min/kg.
`O=C(C[C@H]1CC[C@@H](c2ccccc2)CC1)Nc1ccc(Cl)cc1`: the CLint scaled at 0.75 h, 1 µM in “in vitro [8]” was determined as 884 mL/min/kg; in “in vitro [1]”, 681 mL/min/kg.
As to `CCC(NC(=O)c1ccc(Cl)cc1)[C@@H]1[C@@H]2C[C@@H](Oc3ccnc4ccccc34)C[C@@H]21` (stereo partly drawn), the Papp A→B in series [4] was determined as 3.63 ×10⁻⁶ cm/s; in [6], 1.86 ×10⁻⁶ cm/s. The values for the basolateral-to-apical permeability (Papp B→A) in series [5] and in [7] were 1.73 ×10⁻⁶ cm/s and 1.4 ×10⁻⁶ cm/s, respectively. In [17], the half-life was 12.8 h. In addition, the results for the CLint scaled at 0.75 h, 1 µM in the series “in vitro [8]” and in the series “in vitro [1]” were 14 mL/min/kg and 23 mL/min/kg, respectively.
`O=C(NC[C@@H]1[C@H]2C[C@@H](Oc3ccnc4ccc(F)cc34)C[C@@H]12)c1ccc(Cl)cc1` displayed a CLint scaled at 0.75 h, 1 µM in the series “in vitro [1]” of 38 mL/min/kg.
In the series “in vitro [1]”, `Fc1cc2ncn([C@H]3C[C@@H]4[C@@H](CNC(c5ccc(Cl)cc5)C(F)(F)F)[C@@H]4C3)c2cc1F` (stereo partly drawn) came in with an intrinsic metabolic clearance (CLint scaled) at 0.75 h, 1 µM of 100 mL/min/kg.
The same measure, in the same setting: the same measure for `CCC(NC(=O)c1ccc(Cl)cc1)[C@@H]1[C@@H]2C[C@H](Oc3ccnc4cccnc34)C[C@@H]21` (stereo partly drawn): 14 mL/min/kg; for `O=C(NC[C@H]1[C@H]2C[C@@H](Oc3ccnc4ccc(F)cc34)C[C@@H]12)c1ccc(Cl)cc1`: 39 mL/min/kg.
Regarding `CCC(NC(=O)c1ccc(Cl)cc1)[C@@H]1[C@@H]2C[C@H](Oc3ccnc4ccc(F)cc34)C[C@@H]21` (stereo partly drawn), in “in vivo [9]”, the AUC(0-inf) came to 51 µM·h. Further, the half-life in the series “in vivo [10]” was 15 h. Moreover, the volume of distribution (Vd) in “in vivo [11]” turned out to be 0.27 L/kg. The clearance in “in vivo [12]” is 0.233 mL/min/kg. Further, in the series “in vivo [13]”, the highest level (Cmax) was 51 µM. For the same compound, the bioavailability in the series “in vivo [14]” turned out to be 146%.
As for `CC(C(=O)Nc1ccc(Cl)cc1)N1CC(COc2ccnc3ccccc23)C1` (stereo not drawn), the intrinsic clearance (CLint scaled) at 0.75 h, 1 µM was found to be 526 mL/min/kg in the series “in vitro [8]” and 227 mL/min/kg in the series “in vitro [1]”.
For the compound `CC[C@@H](NC(=O)c1ccc(Cl)cc1)[C@H]1[C@@H]2C[C@@H](n3cnc4ccc(F)cc43)C[C@@H]21` (stereo in doubt; 56), the concentration at 120 h is 2.3 µM in the series “in vivo [15]” and 0.6 µM in “in vivo [16]”.
On to `O[C@H](C[C@H]1c2c(F)cccc2-c2cncn21)[C@H]1CC[C@H](O)CC1` [NAVOXIMOD], for which the results for the CLint scaled at 0.75 h, 1 µM in “in vitro [8]” and in the series “in vitro [1]” were 39 mL/min/kg and 11 mL/min/kg, respectively.
The like results for `O=C1CC(c2c[nH]c3ccc(F)cc23)C(=O)N1` (stereo not drawn) [PF-06840003] were, in that order, 7.2 mL/min/kg and 2.9 mL/min/kg.
